From PMC8344022, “Small-molecule inhibitor of AF9/ENL-DOT1L/AF4/AFF4 interactions suppresses malignant gene expression and tumor growth” (Theranostics, 2021)
pIC50: −log10 of the molar value. Where two headings read alike, the source gives them in different places.

Legend:
Molm-13 cells = assay: Annexin V apoptosis assay (flow cytometry); assay type: cell-based
Experimental: Compound 1 (5 μM for 5 days) induced significant differentiation, with more cell populations expressing CD14 and CD11b, two cell surface proteins for macrophages/monocytes (Figure 5B).
Flow cytometry. […] Apoptosis was determined using the FITC Annexin V Apoptosis Detection Kit I (BD Bioscience) using the manufacturer's protocol. For other FACS assays, cells were labeled with fluorochrome-conjugated monoclonal antibodies against human CD14 and CD11b (BD Biosciences) according to the manufacturer's recommendation. Cells were analyzed using a FACS Calibur (BD Biosciences/Applied Biosystems) and data were processed using the program Flowjo (version7.6.5).

[1] = target: T1, AF9 AHD bound to DOT1L-coated beads (Homo sapiens, UniProt P42568); assay: Western blot based pull-down assay; assay type: binding; settings: increasing concentrations
T1 construct: cDNA for human AF9 AHD domain (475-568) and ENL AHD domain (489-559) was synthesized; made in house; host or cells: E. coli BL21(DE3)
Experimental: A non-optical pull-down assay was used to further validate compound 1. DOT1L-coated beads were incubated with AF9 AHD in the presence of increasing concentrations of 1.
Western blot based pull-down assay. Biotinylated DOT1L peptide (0.25 mg/mL) was incubated with streptavidin agarose beads in PBS containing 0.1% Triton X-100 (400 µL) for 3h to yield, after washing, DOT1L-coated beads. MBP-AF9 AHD (0.2 µM, 40 µL) was pre-incubated with a compound for 30 min before adding to the beads. After 6 hours incubation at 4 °C, the beads were collected, thoroughly washed, and subjected to SDS-PAGE and analyzed by Western blot using an MBP Mouse mAb (#2396, Cell signaling).

LSD1 = LSD1 (Homo sapiens, UniProt O60341); assay: LSD1 enzyme inhibition; assay type: biochemical; settings: at 100 µM (Figure S3: 30 or 100 µM)
Experimental: Inhibition of DOT1L, LSD1 and p300 was performed using our previously reported methods, [37], [38].
LSD1, and p300 histone acetyltransferase at 30 or 100 µM, using our previous reported methods [Ref. 36, 37,
(1 picture or pasted object on this page, not shown here)

[2] = test system: AF9/ENL-DOT1L/AF4/AFF4 interactions; assay: Biochemical assays of PPIs between AF9/ENL and DOT1L/AF4/AFF4 (overall); assay type: binding, human; settings: for pIC50: range over the PPIs tested, read-out: IC50s against AF9/ENL-DOT1L/AF4/AFF4 interactions (range over PPIs)
Experimental: Because both FP and Alpha assays are unsuitable for studies of AF9/ENL binding kinetics, we compared the IC50s of the inhibitor with the Kds of the PPIs (Table 1).
Alpha assays. Alpha assays were developed using Perkin-Elmer AlphaLisa anti-MBP kit, which contains streptavidin donor beads and anti-MBP acceptor beads. The assay was performed using a MBP-protein (5 nM), a biotinylated peptide (40 nM), and increasing concentrations of a compound in 25 µL buffer (PBS with 0.5 % BSA, pH 7.5) in 384-well plates according to the manufacturer's protocol and measured with a Tecan SPARK microplate reader. Data were imported into Prism (version 5.0), and IC50 values from 3 independent experiments with standard deviation were obtained by using a standard dose-response curve fitting.
Fluorescence polarization assay. It was performed in 96-well black microplates with each well containing a Fluorescein-labeled peptide (2 nM) and increasing concentration of a AF9/ENL protein in a buffer (20 mM HEPES, pH 7.5, 0.01% Triton X-100, 100 µL) for Kd determination. For IC50 determination, a Fluorescein-labeled peptide (2 nM), AF9/ENL protein (100 nM) and increasing concentration of a compound in the same buffer were placed in each well. Upon incubation of 1h, the FP value of each well was determined using a Tecan SPARK microplate reader. Data were similarly processed to obtain Kd or IC50 values.

T1 sequence (P42568 475-568): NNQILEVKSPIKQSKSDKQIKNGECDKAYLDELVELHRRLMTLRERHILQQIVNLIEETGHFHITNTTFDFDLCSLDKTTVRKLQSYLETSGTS

CC(C)(C)c1ccc(-n2cc(C(=O)NC3CCNCC3)nc2-c2ccccc2)cc1 [Compound 1]
Apoptosis (Molm-13 cells; 5 µM, 5-day incubation): did not cause significant apoptosis
Apoptosis (Molm-13 cells; 10 µM, 5 days): 44.2%
Apoptosis (Molm-13 cells; 15 µM, 5 days): 73.6%
Apoptosis (Molm-13 cells; short-term 2- or 3-day incubation): < 5%
Beads-bound AF9 AHD in pull-down (Western blot) [1]: reduced beads-bound AF9 AHD with a similar IC50
Inhibition of LSD1 enzyme activity (LSD1): did not significantly inhibit
Mode of inhibition ([2]; comparison of IC50s with Kds of the PPIs): non-competitive mode of inhibition
pIC50 ([2]; listed as Compound-1): 5.46 to 6.05
pIC50 [2]: 5.46 to 6.03
